Reference: patent US8404684B2, “Inhibitors of phosphatidylinositol 3-kinase” (Novartis AG, priority 2003, dated 2013)

Biological target: T1, recombinant GST-p110γ (human PI3Kγ, residues 38-1102) (Homo sapiens, UniProt P48736)
T1 construct: Residues 38-1102 of human PI3Kγ are subcloned into the BamH1 and EcoR1 sites; made in house; host or cells: Sf9 (Spodoptera frugiperda) insect cells, baculovirus
Assay: PI3Kγ in vitro kinase assay (Scintillation Proximity Assay), transfer of terminal phosphate of ATP to phosphatidylinositol
Format: biochemical
Details: 12.5 μM ATP, 15 μg/ml phosphatidylinositol, 60 minutes at room temperature
Text: Baculovirus expressing different fragments of PI3Kγ fused to GST have been previously described by Stoyanova, S., Bulgarelli-Leva, G., Kirsch, C., Hanck, T., Klinger, R., Wetzker, R., Wymann, M. P. (1997) Lipid- and protein kinase activities of G protein-coupled PI 3-kinase g: structure-activity analysis and interactions with wortmannin. Biochem. J., 324:489. Residues 38-1102 of human PI3Kγ are subcloned into the BamH1 and EcoR1 sites of the transfer vector pAcG2T (Pharmingen) to create a GST-PI3Kγ lacking the first 37 residues of PI3Kγ. To express the recombinant protein, Sf9 (Spodoptera frugiperda 9) insect cells are routinely maintained at densities between 3×10^5 and 3×10^6 cells/ml in serum containing TNMFH medium (Sigma). Sf9 cells, at a density of 2×10^6 are infected with human GST-PI3KγΔ34 baculovirus at a multiplicity of infection (m.o.i.) of 1 for 72 hours. The infected cells are harvested by centrifugation at 1400 g for 4 minutes at 4° C. and the cell pellets are frozen at −80° C. Both Sf9 and Sf21 cells work equally well. Sf9 cells (1×10^9) are resuspended in 100 ml cold (4° C.) lysis buffer (50 mM Tris-HCl pH 7.5, 1% Triton X-100, 150 mM NaCl, 1 mM NaF, 2 mM DTT and protease inhibitors. Cells are incubated on ice for 30 minutes then centrifuged at 15000 g for 20 minutes at 4° C. Purification of the supernatant sample is carried out at 4° C. by affinity chromatography using SEPHAROSE™ agarose gel beads coupled to glutathione (from Amersham Pharmacia Biotech). A cell lysate/GST resin ratio of 50:1 is used. The GST resin is firstly pre-rinsed to remove ethanol preservative and then equilibrated with lysis buffer. Cell lysate (supernatant) is added (usually as 50 ml lysate to 1 ml GST resin in 50 ml tubes) and gently rotated on a mixer at 4° C. for 2-3 hours. The unbound flow through sample is collected by centrifugation at 1000 g for 5 minutes at 4° C. using a DENLEY™ centrifuge. The 1 ml GST resin containing bound material is transferred to a 15 ml FALCON™ centrifuge tube for subsequent washing and elution steps. Firstly a series of 3 cycles of washings (mixing by gentle inversion) is performed with 15 ml ice cold wash Buffer A (50 mM Tris-HCl pH 7.5, 1% Triton X-100, 2 mM DTT) interspersed with centrifugation at 1000 g for 5 minutes at 4° C. A final single wash step is performed with 15 ml ice cold wash Buffer B (50 mM Tris-HCl pH 7.5, 2 mM DTT) and then centrifuged at 1000 g for 5 minutes at 4° C. The washed GST resin is finally eluted with 4 cycles of 1 ml ice cold elution buffer (50 mM Tris-HCl pH 7.5, 10 mM reduced glutathione, 2 mM DTT, 150 mM NaCl, 1 mM NaF, 50% ethylene glycol and protease inhibitors) interspersed with centrifugation at 1000 g for 5 minutes at 4° C. Samples are aliquoted and stored at −20° C.
An in vitro kinase assay is established that measures the transfer of the terminal phosphate of adenosine triphosphate to phosphatidylinositol. The kinase reaction is performed in a white 96 well microtitre plate as a Scintillation Proximity Assay. Each well contains 10 μl test compound in 5% dimethylsulphoxide and 20 μl assay mix (40 mM Tris, 200 mM NaCl, 2 mM ethyleneglycol-aminoethyl-tetraacetic acid (EGTA), 15 μg/ml phosphatidylinositol, 12.5 μM adenosine triphosphate (ATP), 25 mM MgCl2, 0.1 μCi [^33P]ATP). The reaction is started by the addition of 20 μl of enzyme mix (40 mM Tris, 200 mM NaCl, 2 mM EGTA containing recombinant GST-p110γ). […]

T1 sequence (P48736 38-1102): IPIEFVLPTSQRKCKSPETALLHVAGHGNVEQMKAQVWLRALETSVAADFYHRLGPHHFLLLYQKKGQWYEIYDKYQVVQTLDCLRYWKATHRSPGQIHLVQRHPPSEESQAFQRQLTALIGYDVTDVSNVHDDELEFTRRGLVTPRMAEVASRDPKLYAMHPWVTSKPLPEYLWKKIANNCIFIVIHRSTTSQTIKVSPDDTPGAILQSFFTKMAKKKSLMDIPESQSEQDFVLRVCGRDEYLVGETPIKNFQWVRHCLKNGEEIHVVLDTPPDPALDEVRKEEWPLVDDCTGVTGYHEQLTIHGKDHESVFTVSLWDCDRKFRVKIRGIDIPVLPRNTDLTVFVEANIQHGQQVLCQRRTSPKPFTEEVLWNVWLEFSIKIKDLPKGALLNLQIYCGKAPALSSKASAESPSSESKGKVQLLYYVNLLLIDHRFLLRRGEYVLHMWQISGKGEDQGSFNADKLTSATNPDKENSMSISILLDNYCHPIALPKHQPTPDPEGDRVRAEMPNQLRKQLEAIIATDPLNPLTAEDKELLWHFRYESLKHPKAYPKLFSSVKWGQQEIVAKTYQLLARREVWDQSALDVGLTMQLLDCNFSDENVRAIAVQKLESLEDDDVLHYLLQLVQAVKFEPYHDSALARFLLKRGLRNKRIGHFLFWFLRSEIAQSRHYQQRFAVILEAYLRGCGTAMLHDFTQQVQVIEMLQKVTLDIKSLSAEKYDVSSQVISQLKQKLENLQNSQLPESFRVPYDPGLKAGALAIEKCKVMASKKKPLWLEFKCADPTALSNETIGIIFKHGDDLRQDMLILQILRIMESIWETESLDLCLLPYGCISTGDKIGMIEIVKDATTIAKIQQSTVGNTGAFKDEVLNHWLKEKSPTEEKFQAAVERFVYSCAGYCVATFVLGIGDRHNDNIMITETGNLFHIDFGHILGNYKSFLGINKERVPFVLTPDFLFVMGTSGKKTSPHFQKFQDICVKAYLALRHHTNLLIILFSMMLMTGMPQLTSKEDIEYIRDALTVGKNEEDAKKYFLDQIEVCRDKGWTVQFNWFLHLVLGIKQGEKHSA

| Compound | IC50 [nM] |
| --- | --- |
| Cc1nc(Nc2cnccn2)sc1-c1ccncc1 [Example 1, (4-Methyl-5-pyridin-4-yl-thiazol-2-yl)-pyrazin-2-yl-amine] | 75 |
| Cc1nc(Nc2cnccn2)sc1-c1ccnc(-n2ccnc2)c1 [Example 6, [5-(2-Imidazol-1-yl-pyridin-4-yl)-4-methyl-thiazol-2-yl]-pyrazin-2-yl-amine] | 165 |
| Cc1nc(NC(=O)NCc2cccn2C)sc1-c1ccncc1 [Example 22, 1-(4-methyl-5-pyridin-4-yl-thiazol-2-yl)-3-(1-methyl-1H-pyrrol-2-ylmethyl)-urea] | 50 |
| CCc1cnc(CCNC(=O)Nc2nc(C)c(-c3cc(C)nc(OC)n3)s2)o1 [Example 56, 1-[2-(5-Ethyl-oxazol-2-yl)-ethyl]-3-[5-(2-methoxy-6-methyl-pyrimidin-4-yl)-4-methyl-thiazol-2-yl]-urea] | 127 |
| Cc1nc(NC(=O)NCCC(=O)OC(C)(C)C)sc1-c1ccnc(C2CC2)n1 [Example 82, 3-{3-[5-(2-cyclopropyl-pyrimidin-4-yl)-4-methyl-thiazol-2-yl]-ureido}-propionic acid tert-butyl ester] | 164 |
| Cc1nc(N)sc1-c1ccnc(C(C)(C)C)n1 [Example 91, 5-(2-tert-Butyl-pyrimidin-4-yl)-4-methyl-thiazol-2-ylamine] | 25 |
| COCCNC(=O)Nc1nc(C)c(-c2ccnc(C(C)(C)C)n2)s1 [Example 108, 1-[5-(2-tert-butyl-pyrimidin-4-yl)-4-methyl-thiazol-2-yl]-3-(2-methoxy-ethyl)-urea] | 5 |
| CCOCCNC(=O)Nc1nc(C)c(-c2ccnc(C(C)(C)C)n2)s1 [Example 120, 1-[5-(2-tert-butyl-pyrimidin-4-yl)-4-methyl-thiazol-2-yl]-3-(2-ethoxy-ethyl)-urea] | 8 |

The remaining compounds from weak to strong by IC50, led by results:

| IC50 [nM] | Compound |
| --- | --- |
| 106 | CCOC(=O)CCNC(=O)Nc1nc(C)c(-c2ccncc2)s1 [Example 17, 3-[3-(4-Methyl-5-pyridin-4-yl-thiazol-2-yl)-ureido]-propionic acid ethyl ester] |
| 93 | Cc1nc(Nc2cc[nH]n2)sc1-c1ccnc(N2CCOCC2)c1 [Example 11, [4-Methyl-5-(2-morpholin-4-yl-pyridin-4-yl)-thiazol-2-yl]-(1H-pyrazol-3-yl)-amine] |
| 73 | CCc1cnc(CCNC(=O)Nc2nc(C)c(-c3ccnc(Cl)c3)s2)o1 [Example 33, 1-[5-(2-chloro-pyridin-4-yl)-4-methyl-thiazol-2-yl]-3-[2-(5-ethyl-oxazol-2-yl)-ethyl]-urea] |
| 17 | CC(=O)Nc1nc(C)c(-c2ccnc(C3CC3)n2)s1 [Example 27, N-[5-(2-Cyclopropyl-pyrimidin-4-yl)-4-methyl-thiazol-2-yl]-acetamide] |
| 16 | 2-{3-[5-(2-methanesulfinyl-6-methyl-pyrimidin-4-yl)-4-methyl-thiazol-2-yl]-ureido}-N,N-dimethyl-acetamide [Example 67] |
